Blank lines part the entries; values can stand above or below the molecule they belong to.
Key:
Monoglyceride lipase [1] = target: T1, Monoglyceride lipase (Homo sapiens, UniProt Q99685); assay: Inhibition of human recombinant MAGL using 4-nitrophenylacetate as substrate after 30 mins
T1 sequence (Q99685 whole entry): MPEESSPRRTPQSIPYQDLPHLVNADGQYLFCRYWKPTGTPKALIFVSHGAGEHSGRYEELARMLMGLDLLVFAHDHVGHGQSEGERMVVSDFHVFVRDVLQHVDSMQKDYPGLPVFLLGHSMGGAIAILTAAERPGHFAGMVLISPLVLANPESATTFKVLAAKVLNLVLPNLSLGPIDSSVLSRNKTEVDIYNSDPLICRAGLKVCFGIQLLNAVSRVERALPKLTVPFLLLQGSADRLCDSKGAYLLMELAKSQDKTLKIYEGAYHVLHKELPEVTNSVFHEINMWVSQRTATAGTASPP

MDA-MB-231 = assay: Cytotoxicity against human MDA-MB-231 cells assessed as growth inhibition after 96 hrs; details: MDA-MB-231, 96 h
[2] = Cytotoxicity against human OVCAR3 cells assessed as growth inhibition after 96 hrs; details: OVCAR-3, 96 h
[3] = Cytotoxicity against human COV318 cells assessed as growth inhibition after 96 hrs; details: COV318, 96 h
[4] = Cytotoxicity against human MSC assessed as growth inhibition after 96 hrs
MCF7 = assay: Cytotoxicity against human MCF7 cells assessed as growth inhibition after 96 hrs; details: MCF7, 96 h
Monoglyceride lipase [5] = target: T1, Monoglyceride lipase; assay: Inhibition of human recombinant MAGL using 4-nitrophenylacetate as substrate preincubated for 30 mins followed by substrate addition
Monoglyceride lipase [6] = target: T1, Monoglyceride lipase; assay: Inhibition of human recombinant MAGL using 4-nitrophenylacetate as substrate preincubated for 60 mins followed by substrate addition
Monoglyceride lipase [7] = target: T1, Monoglyceride lipase; assay: Inhibition of human recombinant MAGL using 4-nitrophenylacetate as substrate

- IC50 (Monoglyceride lipase [1]): > 500 µM
Structure (SMILES): COc1ccc(-c2nnn(CC(=O)N3CCN(c4ccc(F)cc4)CC3)n2)cc1

- IC50 (Monoglyceride lipase [1]): > 500 µM
Structure (SMILES): O=C(Cc1ccccc1)N1CCC(C(=O)N2CCN(c3ccc(F)cc3)CC2)CC1

- IC50 (Monoglyceride lipase [1]): > 500 µM
Structure (SMILES): CCOc1ccc(N2CC(C(=O)Nc3ccc(C(C)=O)cc3)CC2=O)cc1 (stereo not given)

- IC50 (Monoglyceride lipase [1]): > 500 µM
Structure (SMILES): COc1ccc(-c2nnc(SCC(=O)N3CCN(c4ccc(OC)cc4)CC3)o2)cc1

- IC50 (Monoglyceride lipase [1]): > 500 µM
Structure (SMILES): O=C(c1ccc([N+](=O)[O-])cc1)c1ccc2c(c1)C(=O)N(c1cccnc1)C2=O

Structure (SMILES): COc1ccc(C(=O)N2CCC(C(=O)c3ccc(Cl)cc3)CC2)cc1
- IC50 (MDA-MB-231): 75.3 µM
- IC50 [2]: 50.7 µM
- IC50 [3]: 73.9 µM
- IC50 [4]: > 300 µM
- IC50 (MCF7): 19.9 µM

- IC50 (Monoglyceride lipase [1]): > 500 µM
Structure (SMILES): O=C(Cn1nnc(-c2ccc(N3CCOCC3)cc2)n1)N1CCN(c2ccccc2)CC1

- IC50 (Monoglyceride lipase [1]): > 500 µM
Structure (SMILES): COc1ccc(CNC(=O)c2ccc3nc(-c4ccoc4)c(-c4ccoc4)nc3c2)cc1

- IC50 (Monoglyceride lipase [5]): 0.026 µM
- IC50 (Monoglyceride lipase [6]): 0.009 µM
- IC50 (Monoglyceride lipase [7]): 0.146 µM
Structure (SMILES): COc1nn(-c2ccc(NC(=O)OCc3ccccc3)c(C)c2)c(=O)o1
- IC50 (MDA-MB-231): 46 µM
- IC50 [2]: > 79.8 µM
- IC50 [3]: 107 µM
- IC50 [4]: 276 µM
- IC50 (MCF7): 4.2 µM
